Assay results reported in patent US9809587B2, “Pesticidally active heterocyclic derivatives with sulphur containing substituents” (Syngenta Participations AG, priority 2014, dated 2017).

Key:
Assay type in all cases: in vivo
[1] = system: Myzus persicae (Green Peach Aphid); assay: Myzus persicae (green peach aphid), roots of pea seedlings in test solution; conditions: 144 h, test rate of 24 ppm, roots of infested pea seedlings in test solution, 6 days
Protocol: Example B5: Myzus persicae (Green Peach Aphid)
Roots of pea seedlings infested with an aphid population of mixed ages were placed directly in the aqueous test solutions prepared from 10′000 DMSO stock solutions. The samples were assessed for mortality 6 days after placing seedlings in test solutions.

[2] = system: Diabrotica balteata (Corn Root Worm); assay: Diabrotica balteata (corn root worm), sprayed maize sprouts; conditions: 96 h, application rate of 200 ppm, L2 larvae on maize sprouts, 4 days after infestation
Protocol: Example B2: Diabrotica balteata (Corn Root Worm)
Maize sprouts, placed on an agar layer in 24-well microtiter plates were treated with aqueous test solutions prepared from 10′000 ppm DMSO stock solutions by spraying. After drying, the plates were infested with L2 larvae (6 to 10 per well). The samples were assessed for mortality and growth inhibition in comparison to untreated samples 4 days after infestation.

[3] = system: Plutella xylostella (Diamond Back Moth); assay: Plutella xylostella (diamond back moth), treated artificial diet; conditions: 120 h, application rate of 200 ppm, L2 larvae on artificial diet, 5 days after infestation, read-out: effect in at least one of the two categories (mortality or growth inhibition)
Protocol: Example B6: Plutella xylostella (Diamond Back Moth)
24-well microtiter plates with artificial diet were treated with aqueous test solutions prepared from 10′000 ppm DMSO stock solutions by pipetting. After drying, the plates were infested with L2 larvae (10 to 15 per well). The samples were assessed for mortality and growth inhibition in comparison to untreated samples 5 days after infestation.
The following compounds gave an effect of at least 80% in at least one of the two categories (mortality or growth inhibition) at an application rate of 200 ppm: […]

[4] = system: Euschistus heros (Neotropical Brown Stink Bug); assay: Euschistus heros (neotropical brown stink bug), sprayed soybean leaf; conditions: 120 h, application rate of 200 ppm, N-2 nymphs on soybean leaf, 5 days after infestation
Protocol: Example B3: Euschistus heros (Neotropical Brown Stink Bug)
Soybean leaf on agar in 24-well microtiter plates were sprayed with aqueous test solutions prepared from 10′000 ppm DMSO stock solutions. After drying the leaf were infested with N-2 nymphs. The samples were assessed for mortality in comparison to untreated samples 5 days after infestation.

[5] = system: Myzus persicae (Green Peach Aphid); assay: Myzus persicae (green peach aphid), sprayed sunflower leaf discs; conditions: foliar, 144 h, application rate of 200 ppm, mixed ages on sunflower leaf discs, 6 days after infestation
Protocol: Example B4: Myzus persicae (Green Peach Aphid)
Sunflower leaf discs were placed on agar in a 24-well microtiter plate and sprayed with aqueous test solutions prepared from 10′000 ppm DMSO stock solutions. After drying, the leaf discs were infested with an aphid population of mixed ages. The samples were assessed for mortality 6 days after infestation.

[6] = system: Spodoptera littoralis (Egyqptian Cotton Leaf Worm); assay: Spodoptera littoralis (Egyptian cotton leaf worm), sprayed cotton leaf discs; conditions: foliar, 72 h, application rate of 200 ppm, L1 larvae on cotton leaf discs, 3 days after infestation
Protocol: Example B7: Spodoptera littoralis (Egyqptian Cotton Leaf Worm)
Cotton leaf discs were placed on agar in 24-well microtiter plates and sprayed with aqueous test solutions prepared from 10′000 ppm DMSO stock solutions. After drying the leaf discs were infested with five L1 larvae. The samples were assessed for mortality, anti-feedant effect, and growth inhibition in comparison to untreated samples 3 days after infestation. Control of Spodoptera littoralis by a test sample is when at least one of mortality, anti-feedant effect, and growth inhibition is higher than the untreated sample.

[7] = system: Spodoptera littoralis (Egyqptian Cotton Leaf Worm); assay: Spodoptera littoralis (Egyptian cotton leaf worm), compound in agar taken up by lettuce roots; conditions: 144 h, test rate of 12.5 ppm, uptake by lettuce roots from agar, 6 days after infestation, read-out: effect in at least one of the three categories (mortality, anti-feedancy, or growth inhibition)
Excerpt: Example B8: Spodoptera littoralis (Egyqptian Cotton Leaf Worm)
Test compounds were applied by pipette from 10′000 ppm DMSO stock solutions into 24-well plates and mixed with agar. Lettuce seeds were placed on the agar and the multi well plate was closed by another plate which contains also agar. After 7 days the roots have absorbed the compound and the lettuce has grown into the lid plate. The lettuce leafs were now cut off into the lid plate. Spodoptera eggs were pipetted through a plastic stencil on a humid gel blotting paper and the plate closed with it. The samples were assessed for mortality, anti-feedant effect and growth inhibition in comparison to untreated samples 6 days after infestation.
The following compounds gave an effect of at least 80% in at least one of the three categories (mortality, anti-feedancy, or growth inhibition) at a test rate of 12.5 ppm: […]

CCS(=O)(=O)c1cc(-c2cncs2)cnc1-c1nc2cc(C(F)(F)F)ncc2n1C [Compound P60]
≥ 80%: mortality at 24 ppm [1] | mortality at 200 ppm [2] | percent effect (mortality or growth inhibition) at 200 ppm [3] | mortality at 200 ppm [4] | mortality at 200 ppm [5] | percent control (mortality, anti-feedant effect or growth inhibition) at 200 ppm [6]

CCS(=O)(=O)c1cc(-c2cncc(Cl)c2)cnc1-c1nc2cc(C(F)(F)F)ncc2n1C [Compound P3]
≥ 80%: mortality at 24 ppm [1] | mortality at 200 ppm [2] | percent effect (mortality or growth inhibition) at 200 ppm [3] | mortality at 200 ppm [4] | mortality at 200 ppm [5]

CCS(=O)(=O)c1cc(-c2cccn3ncnc23)cnc1-c1nc2cc(C(F)(F)F)ncc2n1C [Compound P34]
≥ 80%: mortality at 24 ppm [1] | mortality at 200 ppm [2] | percent effect (mortality or growth inhibition) at 200 ppm [3] | mortality at 200 ppm [4] | mortality at 200 ppm [5] | percent control (mortality, anti-feedant effect or growth inhibition) at 200 ppm [6]

CCS(=O)(=O)c1cc(-c2ccnc(C)c2)cnc1-c1nc2cc(C(F)(F)F)ncc2n1C [Compound P53]
≥ 80%: mortality at 24 ppm [1] | percent effect (mortality or growth inhibition) at 200 ppm [3] | mortality at 200 ppm [4] | mortality at 200 ppm [5] | percent control (mortality, anti-feedancy or growth inhibition) at 12.5 ppm [7] | percent control (mortality, anti-feedant effect or growth inhibition) at 200 ppm [6]

CCS(=O)(=O)c1cc(-c2cc(OC)ccn2)cnc1-c1nc2cc(C(F)(F)F)ncc2n1C [Compound P109]
≥ 80%: mortality at 24 ppm [1] | mortality at 200 ppm [2] | percent effect (mortality or growth inhibition) at 200 ppm [3] | mortality at 200 ppm [4] | mortality at 200 ppm [5] | percent control (mortality, anti-feedant effect or growth inhibition) at 200 ppm [6]

CCS(=O)(=O)c1cc(-n2ccc(C)n2)cnc1-c1nc2cc(C(F)(F)F)ncc2n1C [Compound P102]
≥ 80%: mortality at 24 ppm [1] | mortality at 200 ppm [2] | percent effect (mortality or growth inhibition) at 200 ppm [3] | mortality at 200 ppm [4] | mortality at 200 ppm [5] | percent control (mortality, anti-feedant effect or growth inhibition) at 200 ppm [6]

CCS(=O)(=O)c1cc(-n2cccn2)cnc1-c1nc2cc(C(F)(F)F)ncc2n1C [Compound P84]
≥ 80%: mortality at 24 ppm [1] | mortality at 200 ppm [2] | percent effect (mortality or growth inhibition) at 200 ppm [3] | mortality at 200 ppm [4] | mortality at 200 ppm [5] | percent control (mortality, anti-feedancy or growth inhibition) at 12.5 ppm [7] | percent control (mortality, anti-feedant effect or growth inhibition) at 200 ppm [6]

CCS(=O)(=O)c1cc(-c2ncncc2F)cnc1-c1nc2cc(C(F)(F)F)ncc2n1C [Compound P61]
≥ 80%: mortality at 24 ppm [1] | mortality at 200 ppm [2] | percent effect (mortality or growth inhibition) at 200 ppm [3] | mortality at 200 ppm [4] | mortality at 200 ppm [5] | percent control (mortality, anti-feedancy or growth inhibition) at 12.5 ppm [7] | percent control (mortality, anti-feedant effect or growth inhibition) at 200 ppm [6]

CCS(=O)(=O)c1cc(-c2cnc(N)nc2C)cnc1-c1nc2cc(C(F)(F)F)ncc2n1C [Compound P58]
≥ 80%: mortality at 24 ppm [1] | mortality at 200 ppm [2] | percent effect (mortality or growth inhibition) at 200 ppm [3] | mortality at 200 ppm [4] | mortality at 200 ppm [5]

CCS(=O)(=O)c1cc(-c2cnc(OC)nc2)cnc1-c1nc2cc(C(F)(F)F)ncc2n1C [Compound P9]
≥ 80%: mortality at 24 ppm [1] | percent effect (mortality or growth inhibition) at 200 ppm [3] | mortality at 200 ppm [5] | percent control (mortality, anti-feedant effect or growth inhibition) at 200 ppm [6]

CCS(=O)(=O)c1cc(-c2cnc3nc(C)ccn23)cnc1-c1nc2cc(C(F)(F)F)ncc2n1C [Compound P37]
≥ 80%: mortality at 24 ppm [1] | mortality at 200 ppm [2] | percent effect (mortality or growth inhibition) at 200 ppm [3] | mortality at 200 ppm [4] | mortality at 200 ppm [5]

CCS(=O)(=O)c1cc(-n2ccccc2=O)cnc1-c1nc2cc(C(F)(F)F)ncc2n1C [Compound P26]
≥ 80%: mortality at 24 ppm [1] | mortality at 200 ppm [2] | percent effect (mortality or growth inhibition) at 200 ppm [3] | mortality at 200 ppm [4] | mortality at 200 ppm [5]
